Experimental data taken from ChEMBL document CHEMBL1155376, “Structure-activity relationships of norepinephrine reuptake inhibitors with benzothiadiazine dioxide or dihydrosulfostyril cores” (Bioorg Med Chem Lett, 2010).

What was measured:
[1] = target: T1, Sodium-dependent dopamine transporter (Homo sapiens, UniProt Q01959); assay: Displacement of [3H]WIN-35428 from human recombinant DAT expressed in CHO cells at 10 uM; format: cell-based
[2] = target: T2, Sodium-dependent serotonin transporter (Homo sapiens, UniProt P31645); assay: Inhibition of serotonin uptake at human SERT expressed in human JAR at 6 uM
Target sequence in this assay (P31645 whole entry, looked up): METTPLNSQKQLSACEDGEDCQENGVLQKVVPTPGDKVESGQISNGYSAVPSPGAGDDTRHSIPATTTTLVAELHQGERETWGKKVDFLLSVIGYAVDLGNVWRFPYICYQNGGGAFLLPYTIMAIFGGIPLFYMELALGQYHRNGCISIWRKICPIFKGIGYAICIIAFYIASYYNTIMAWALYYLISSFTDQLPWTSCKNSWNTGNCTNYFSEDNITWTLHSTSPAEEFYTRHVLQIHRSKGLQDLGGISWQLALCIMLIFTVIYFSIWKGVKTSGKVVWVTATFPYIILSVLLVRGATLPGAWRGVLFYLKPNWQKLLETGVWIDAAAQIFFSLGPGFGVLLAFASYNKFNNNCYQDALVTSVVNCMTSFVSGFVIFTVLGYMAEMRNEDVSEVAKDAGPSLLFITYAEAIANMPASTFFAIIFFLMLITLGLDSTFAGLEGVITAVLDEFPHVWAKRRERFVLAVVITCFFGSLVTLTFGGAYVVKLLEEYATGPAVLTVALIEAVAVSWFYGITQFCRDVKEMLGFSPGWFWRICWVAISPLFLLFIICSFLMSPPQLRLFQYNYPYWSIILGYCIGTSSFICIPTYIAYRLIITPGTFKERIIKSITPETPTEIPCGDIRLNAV

[3] = target: T1, Sodium-dependent dopamine transporter; assay: biochemical
[4] = target: T2, Sodium-dependent serotonin transporter; assay: Inhibition of serotonin uptake at human SERT expressed in human JAR
Target sequence in this assay (P31645 whole entry): as the sequence (P31645 whole entry, looked up) above

[5] = test system: Rattus norvegicus; assay: Thermoregulatory activity in OVX-induced thermoregulatory dysfunction Sprague-Dawley rat model assessed as maximum reduction in tail-skin temperature at 3 mg/kg, po by implanted temperature and physical activity transmitter; format: functional
[6] = Half life in rat liver microsomes at 1 uM
[7] = test system: Rattus norvegicus; assay: Thermoregulatory activity in OVX-induced thermoregulatory dysfunction Sprague-Dawley rat model assessed as mean reduction in tail-skin temperature at 3 mg/kg, po by implanted temperature and physical activity transmitter; format: functional
[8] = target: Sodium-dependent noradrenaline transporter (Homo sapiens, UniProt P23975)
Description: Inhibition of norepinephrine uptake at human NET expressed in MDCK-Net6 cells

[9] = target: T1, Sodium-dependent dopamine transporter; assay: Displacement of [3H]WIN-35428 from human recombinant DAT expressed in CHO cells at 1 uM; format: cell-based
[10] = target: T2, Sodium-dependent serotonin transporter; assay: Inhibition of serotonin uptake at human SERT expressed in human JAR at 1 uM
Target sequence in this assay (P31645 whole entry, looked up): as above

[11] = test system: Rattus norvegicus; assay: Duration of thermoregulatory activity in OVX-induced thermoregulatory dysfunction Sprague-Dawley rat model at 3 mg/kg, po by implanted temperature and physical activity transmitter; format: functional

Chain of Sodium-dependent noradrenaline transporter (P23975 whole entry): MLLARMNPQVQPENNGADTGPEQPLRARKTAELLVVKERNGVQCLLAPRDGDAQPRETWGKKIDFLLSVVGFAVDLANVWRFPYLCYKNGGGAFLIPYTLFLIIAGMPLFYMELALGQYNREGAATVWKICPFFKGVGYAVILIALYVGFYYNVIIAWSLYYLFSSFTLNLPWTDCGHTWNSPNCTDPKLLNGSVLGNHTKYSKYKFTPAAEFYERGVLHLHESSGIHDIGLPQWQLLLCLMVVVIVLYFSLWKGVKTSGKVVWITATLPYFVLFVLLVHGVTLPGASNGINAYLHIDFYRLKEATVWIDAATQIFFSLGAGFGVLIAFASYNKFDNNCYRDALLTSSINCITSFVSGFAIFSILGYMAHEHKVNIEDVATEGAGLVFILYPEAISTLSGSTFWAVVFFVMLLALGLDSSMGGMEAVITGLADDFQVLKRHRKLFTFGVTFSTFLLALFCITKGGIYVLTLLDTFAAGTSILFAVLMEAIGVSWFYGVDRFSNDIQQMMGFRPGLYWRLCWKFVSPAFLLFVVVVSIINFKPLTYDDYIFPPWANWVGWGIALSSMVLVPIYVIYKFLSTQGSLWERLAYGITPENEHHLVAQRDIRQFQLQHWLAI
T1 sequence (Q01959 whole entry): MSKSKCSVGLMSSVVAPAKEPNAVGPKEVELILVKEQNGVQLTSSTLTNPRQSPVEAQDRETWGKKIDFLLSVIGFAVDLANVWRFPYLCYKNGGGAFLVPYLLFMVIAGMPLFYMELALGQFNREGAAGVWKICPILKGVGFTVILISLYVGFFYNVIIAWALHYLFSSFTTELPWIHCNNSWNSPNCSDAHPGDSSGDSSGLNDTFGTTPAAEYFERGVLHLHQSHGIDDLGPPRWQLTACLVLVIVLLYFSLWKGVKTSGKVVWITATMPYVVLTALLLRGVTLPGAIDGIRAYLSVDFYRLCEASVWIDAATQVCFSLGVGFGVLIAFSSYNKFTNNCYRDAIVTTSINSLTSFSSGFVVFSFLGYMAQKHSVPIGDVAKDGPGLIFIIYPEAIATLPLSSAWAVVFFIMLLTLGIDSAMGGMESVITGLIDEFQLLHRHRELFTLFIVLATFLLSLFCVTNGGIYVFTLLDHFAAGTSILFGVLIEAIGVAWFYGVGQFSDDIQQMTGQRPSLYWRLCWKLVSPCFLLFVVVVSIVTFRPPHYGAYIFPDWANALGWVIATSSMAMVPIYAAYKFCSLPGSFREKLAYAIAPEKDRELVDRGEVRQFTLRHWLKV

| Compound | IC50 [4] [nM] | half-life at 1 µM [6] [min] | IC50 [8] [nM] | further results |
| --- | --- | --- | --- | --- |
| CNCCCC1Cc2ccccc2N(c2ccccc2F)S1(=O)=O (single isomer, unassigned; enantiomer I) [listing 1 of 2 here] | – | – | – | inhibition [1]: 21%; inhibition [2]: 11% |
| CNCCCC1Cc2cc(F)ccc2N(c2ccccc2)S1(=O)=O (single isomer, unassigned; enantiomer II) | 240 | – | – | IC50 [3]: 4000 nM |
| CNCCCC1Cc2cc(F)ccc2N(c2ccccc2F)S1(=O)=O (single isomer, unassigned; enantiomer II) | – | – | – | inhibition [1]: 50% |
| CNCCCC1Cc2ccccc2N(c2c(F)cccc2F)S1(=O)=O.Cl (single isomer, unassigned; 16f) | 8000 | 4 | 5 | Activity [5]: 0 °C; Activity [7]: 0 °C |
| CNCCN1Cc2cc(F)ccc2N(c2ccccc2F)S1(=O)=O | 13300 | – | – | inhibition [9]: -5% |
| CNCCCC1Cc2cc(F)ccc2N(c2ccccc2)S1(=O)=O (single isomer, unassigned; enantiomer I) | – | – | – | inhibition [2]: 85% |
| CNCCCN1Cc2cc(F)ccc2N(c2ccccc2F)S1(=O)=O | 1500 | – | – | inhibition [9]: 2.5% |
| CNCCCC1Cc2ccccc2N(c2c(F)cccc2F)S1(=O)=O (single isomer, unassigned; 16f) | – | – | – | inhibition [1]: 3.8% |
| CNCCCC1Cc2cc(F)ccc2N(c2c(F)cccc2F)S1(=O)=O.Cl (single isomer, unassigned; enantiomer II) | 600 | > 30 | 27 | – |
| CNCCCC1Cc2ccccc2N(c2c(F)cccc2F)S1(=O)=O (single isomer, unassigned; 16e) [listing 1 of 2 here] | – | – | – | inhibition [2]: 40% |
| CNCCCC1Cc2ccccc2N(c2c(F)cccc2F)S1(=O)=O (single isomer, unassigned; 16e) [listing 2 of 2 here] | – | 3 | 52 | – |
| CNCCCN1Cc2ccccc2N(c2ccccc2F)S1(=O)=O | 5500 | – | – | inhibition [9]: -7% |
| CNCCCC1Cc2cc(F)ccc2N(c2c(F)cccc2F)S1(=O)=O (single isomer, unassigned) [listing 1 of 2 here] | – | > 30 | 25 | – |
| CNCCCC1Cc2ccccc2N(c2ccccc2)S1(=O)=O.Cl (single isomer, unassigned; enantiomer II) | 2500 | < 1 | 12 | IC50 [3]: 6600 nM |
| CNCCCC1Cc2cc(F)ccc2N(c2c(F)cccc2F)S1(=O)=O (single isomer, unassigned) [listing 2 of 2 here] | – | – | – | inhibition [2]: 82% |
| CNCCCC1Cc2ccccc2N(c2ccccc2)S1(=O)=O (single isomer, unassigned; enantiomer I) | 6900 | 3 | 88 | – |
| CNCCN1Cc2ccccc2N(c2ccccc2F)S1(=O)=O | – | – | – | inhibition [9]: 24%; inhibition [10]: 24% |
| CNCCCC1Cc2ccccc2N(c2ccccc2F)S1(=O)=O.Cl (single isomer, unassigned; enantiomer II) | – | < 1 | 3 | – |
| CNCCCCN1Cc2cc(F)ccc2N(c2ccccc2F)S1(=O)=O | 110 | – | – | inhibition [9]: 25% |
| CNCCCC1Cc2cc(F)ccc2N(c2ccccc2F)S1(=O)=O.Cl (single isomer, unassigned; enantiomer II) | 340 | > 30 | 11 | Activity [5]: 2.4 °C; Activity [7]: 1.5 °C; Activity [11]: 6 h |
| CNCCCC1Cc2cc(F)ccc2N(c2ccccc2F)S1(=O)=O (single isomer, unassigned; enantiomer I) | 720 | > 30 | 93 | – |
| CNCCCC1Cc2ccccc2N(c2ccccc2F)S1(=O)=O (single isomer, unassigned; enantiomer II) | – | – | – | inhibition [1]: 23%; inhibition [2]: 74% |
| CNCCCN1Cc2ccccc2N(c2ccc(C)cc2)S1(=O)=O | – | – | 140 | – |
| CNCCCC1Cc2ccccc2N(c2ccccc2F)S1(=O)=O (single isomer, unassigned; enantiomer I) [listing 2 of 2 here] | – | < 1 | 55 | – |
| CNCCCCN1Cc2ccccc2N(c2ccccc2F)S1(=O)=O | 2000 | – | – | inhibition [9]: 18% |
| CNCCCN1Cc2ccccc2N(c2ccccc2)S1(=O)=O | 6000 | – | – | inhibition [9]: 17% |
